The values below come from PMC12567349, “Design and Optimization of Spiro-Isatin-Thiazolidinone Hybrids with Promising Anticancer Activity” (Pharmaceuticals, 2025).

Type in all cases: cell-based
One experiment concerns HaCaT cells. Description: MTT assay, 72 h, HaCaT (pseudo-normal). The note with it: Homo sapiens, mean ± SD. As for the experimental part: (§1) The cytotoxic potential of the synthesized compounds was investigated using the MTT assay after 72 h incubation with a panel of human and murine cancer cell lines, including colorectal carcinoma (HCT116), estrogen receptor-positive breast adenocarcinoma (MCF-7), triple-negative breast adenocarcinoma (MDA-MB-231), epidermoid carcinoma (KB3-1), myeloid leukemia (K562), and glioblastoma (U373), and mouse breast carcinoma (4T1) cells. To assess the selectivity of the compounds, pseudo-normal cell lines—human keratinocytes (HaCaTs) and mouse fibroblasts (NIH3T3s)—were also tested under the same conditions.
(§2) Human breast adenocarcinoma cells of MCF-7 and MDA-MB-231 lines, human glioblastoma cells of U373 line, human chronic myelogenous leukemia cells of K562 line, human colorectal carcinoma cells of HCT116 line, and human epidermoid carcinoma cells of KB3-1 line were kindly donated by a Collection of the Institute for Cancer Research at Vienna Medical University (Vienna, Austria). Human keratinocytes of HaCaT line, murine breast carcinoma cells of 4T1 line, and murine fibroblasts of the NIH3T3 line were obtained from the Cell Collection of the R.E. Kavetsky Institute of Experimental Pathology, Oncology and Radiobiology of the National Academy of Sciences of Ukraine (Kyiv, Ukraine). MCF-7, MDA-MB-231, U373, K562, HaCaT, and NIH3T3 cells were cultured in DMEM medium (Sigma-Aldrich, Burlington, MA, USA) supplemented with 2 mM L-glutamine, 4500 mg/L glucose, and 1 mM sodium pyruvate. HCT116 and KB3-1 cells were maintained in RPMI-1640 medium supplemented with 2 mM L-glutamine (Sigma-Aldrich, USA). Both media were supplemented with 10% fetal bovine serum (Sigma-Aldrich, USA). All cell lines were incubated at 37 °C in a humidified atmosphere containing 5% CO2.
(§3) The substrate cells were seeded at a density of 5000 cells per 100 µL, while suspension K562 cells were seeded at 15,000 cells per 100 µL in 96-well plates and incubated overnight. Doxorubicin (Dox, Sigma-Aldrich, USA) was used as a reference drug. Studied substances were then added in 100 µL of culture medium, and the cells were further incubated for 72 h. Subsequently, 20 µL of MTT solution (5 mg/mL, Sigma-Aldrich, USA) was added to each well and incubated for 2–4 h. Formazan crystals were then solubilized by adding dimethyl sulfoxide (Sigma-Aldrich, USA). Absorbance was measured using a BioTek ELx800 Absorbance Reader (BioTek Instruments, Inc., Winooski, VT, USA). The results were analyzed and illustrated using GraphPad Prism (version 8.0.1; GraphPad Software, San Diego, CA, USA) and presented as a mean (M) ± standard deviation (SD). The IC50 values of the compounds were determined using nonlinear regression analysis in GraphPad Prism 10.4.2 [40].
Background: Tetrazolium dyes change colour on reduction, which living cells bring about.

For a further experiment, the system named is KB3-1 cells. Description: MTT assay, 72 h, KB3-1. To be noted: Homo sapiens, KB 3-1, mean ± SD. Here is the method: as §1, §2, §3
Another experiment has as its system K562 cells. Description: MTT assay, 72 h, K562. To be noted: Homo sapiens, mean ± SD. As for the experimental part: as §1, §2, §3
The next experiment has as its system 4T1 cells. Description: MTT assay, 72 h, 4T1. The note with it: Mus musculus, mean ± SD. Here is the method:
as §1, §2, §3

In another experiment the test system is HCT116 cells. As to the kind of experiment: MTT assay, 72 h, HCT116. To be noted: Homo sapiens, HCT-116, mean ± SD. As for the experimental part:
as §1, §2, §3

In the next experiment the test system is MDA-MB-231 cells. Description: MTT assay, 72 h, MDA-MB-231. The note with it: Homo sapiens, mean ± SD. As for the experimental part: as §1, §2, §3
For the next experiment, the system named is MCF-7 cells. As to the kind of experiment: MTT assay, 72 h, MCF-7. The note with it: Homo sapiens, MCF7, mean ± SD. As for the experimental part:
as §1, §2
as §3, with “Doxorubicin (Dox, Sigma-Aldrich, USA) was used as a reference drug.” left out

The next experiment concerns U373 cells. As to the kind of experiment: MTT assay, 72 h, U373. To be noted: Homo sapiens, U373 MG, mean ± SD. As for the experimental part:
as §1, §2, §3

Another experiment relates to NIH3T3 cells. Description: MTT assay, 72 h, NIH3T3 (pseudo-normal). The note with it: Mus musculus, mean ± SD. Here is the method:
as §1, §2, §3

The term IC50 denotes the point on the concentration scale where inhibition reaches its midpoint. Consider `COc1ccc(N2C(=O)CSC23C(=O)Nc2ccc(Cl)cc23)cc1` (centres unmarked) [Compound 1, 5-Chloro-3′-(4-methoxyphenyl)spiro[indoline-3,2′-thiazolidine]-2,4′-dione], for which the IC50 with HaCaT cells is 96.7 ± 1.02 µM; in the experiment with KB3-1 cells it was 62.3 ± 0.51 µM; in the experiment on K562 cells it was 71.8 ± 7.79 µM; with 4T1 cells, 89.4 ± 1.93 µM; with HCT116 cells, more than 100 µM; with MDA-MB-231 cells, 85.3 ± 1.15 µM. The IC50 in the experiment with MCF-7 cells is more than 100 µM; with U373 cells, 76.7 ± 0.54 µM; in the experiment on NIH3T3 cells, 77.6 ± 1.82 µM.

As to `COc1cccc2c1C(=O)c1c(O)c3c(c(O)c1C2=O)C[C@@](O)(C(=O)CO)C[C@@H]3O[C@H]1C[C@H](N)[C@H](O)[C@H](C)O1` [Dox, Doxorubicin, reference compound], the IC50 in the experiment on HaCaT cells came to 3.1 ± 0.18 µM; in the experiment with KB3-1 cells, 0.53 ± 0.08 µM; in the experiment with K562 cells, 0.95 ± 0.11 µM; in the experiment with 4T1 cells it was 0.73 ± 0.1 µM; with HCT116 cells it was 0.9 ± 0.11 µM; in the experiment on MDA-MB-231 cells, 0.6 ± 0.08 µM. The IC50 in the experiment with U373 cells is 0.35 ± 0.09 µM; with NIH3T3 cells, 0.63 ± 0.12 µM.

Take `O=C1/C(=C/c2ccc(Cl)cc2)SC2(C(=O)Nc3ccc(Cl)cc32)N1c1ccc(Cl)cc1` (centres unmarked) [Compound 11, (Z)-5-Chloro-5′-(4-chlorobenzylidene)-3′-(4-chlorophenyl)spiro[indoline-3,2′-thiazolidine]-2,4′-dione]: the IC50 is 8.67 ± 0.49 µM in the experiment with HaCaT cells; 6.95 ± 0.14 µM in the experiment on KB3-1 cells; 74.35 ± 0.66 µM in the experiment on K562 cells; 5.66 ± 0.27 µM with 4T1 cells; more than 100 µM in the experiment with HCT116 cells; 6.37 ± 0.11 µM in the experiment on MDA-MB-231 cells. Also, the IC50 in the experiment on MCF-7 cells was 6 ± 0.28 µM; in the experiment on U373 cells, 66.9 ± 0.83 µM; in the experiment with NIH3T3 cells it was more than 100 µM.

In the case of `O=C1/C(=C/c2ccc(N3CCOCC3)cc2)SC2(C(=O)Nc3ccc(Cl)cc32)N1c1ccc(Cl)cc1` (centres unmarked) [Compound 10, (Z)-5-Chloro-3′-(4-chlorophenyl)-5′-(4-morpholinobenzylidene)spiro[indoline-3,2′-thiazolidine]-2,4′-dione], the IC50 with HaCaT cells was more than 100 µM; in the experiment with KB3-1 cells it was 16.9 ± 0.86 µM; in the experiment with K562 cells it was more than 100 µM; with 4T1 cells, more than 100 µM; with HCT116 cells it was more than 100 µM; with MDA-MB-231 cells, more than 100 µM. In addition, the 50% inhibitory concentration (IC50) in the experiment with MCF-7 cells, in the experiment on U373 cells and with NIH3T3 cells was more than 100 µM throughout.

On to `COc1ccc(N2C(=O)/C(=C/c3ccc(Cl)cc3)SC23C(=O)Nc2ccc(Cl)cc23)cc1` (centres unmarked) [Compound 7, (Z)-5-Chloro-5′-(4-chlorobenzylidene)-3′-(4-methoxyphenyl)spiro[indoline-3,2′-thiazolidine]-2,4′-dione], for which the IC50 is 8.63 ± 0.57 µM in the experiment with HaCaT cells; 17.2 ± 0.21 µM in the experiment with KB3-1 cells; 27.7 ± 3.02 µM with K562 cells; 29 ± 0.92 µM in the experiment with 4T1 cells; more than 100 µM in the experiment on HCT116 cells; 8.55 ± 0.06 µM in the experiment with MDA-MB-231 cells. For the same compound, the results for the 50% inhibitory concentration (IC50) with MCF-7 cells, in the experiment on U373 cells and in the experiment on NIH3T3 cells were 52.2 ± 2.15 µM, 72.3 ± 0.8 µM and 79.7 ± 0.93 µM, respectively.

On to `O=C1/C(=C/c2ccc(-c3ccccn3)cc2)SC2(C(=O)Nc3ccc(Cl)cc32)N1c1ccc(Cl)cc1` (centres unmarked) [Compound 13, (Z)-5-Chloro-3′-(4-chlorophenyl)-5′-(4-(pyridin-2-yl)benzylidene)spiro[indoline-3,2′-thiazolidine]-2,4′-dione], for which the IC50 in the experiment on HaCaT cells was more than 100 µM; in the experiment with KB3-1 cells, 0.99 ± 0.08 µM; in the experiment on K562 cells it was 5.55 ± 0.17 µM; with 4T1 cells, more than 100 µM; in the experiment with HCT116 cells, 41.4 ± 0.62 µM; in the experiment with MDA-MB-231 cells, more than 100 µM. Also, the 50% inhibitory concentration (IC50) in the experiment on MCF-7 cells, in the experiment on U373 cells and with NIH3T3 cells was more than 100 µM throughout.

For the compound `O=C1CSC2(C(=O)Nc3ccc(Cl)cc32)N1c1ccc(Cl)cc1` (centres unmarked) [Compound 2, 5-Chloro-3′-(4-chlorophenyl)spiro[indoline-3,2′-thiazolidine]-2,4′-dione], the IC50 in the experiment on HaCaT cells is 82.8 ± 1.94 µM; in the experiment with KB3-1 cells it was 51.77 ± 0.26 µM; in the experiment with K562 cells, 9.96 ± 1.17 µM; in the experiment on 4T1 cells, 73 ± 7.02 µM; with HCT116 cells it was more than 100 µM; in the experiment on MDA-MB-231 cells, 62.69 ± 0.22 µM. Also, the half-maximal inhibitory concentration (IC50) amounted to 84.9 ± 6.51 µM with MCF-7 cells, 77.91 ± 0.56 µM with U373 cells and 98.25 ± 0.64 µM with NIH3T3 cells.

`CC(C)(C)c1ccc(/C=C2\SC3(C(=O)Nc4ccc(Cl)cc43)N(Cc3ccccc3)C2=O)cc1` (centres unmarked) [Compound 17, (Z)-3′-Benzyl-5′-(4-(tert-butyl)benzylidene)-5-chlorospiro[indoline-3,2′-thiazolidine]-2,4′-dione]: the IC50 with HaCaT cells stood at 10.6 ± 0.21 µM; in the experiment with KB3-1 cells, 5.85 ± 0.42 µM; with K562 cells it was 67.9 ± 0.81 µM; with 4T1 cells, 66 ± 4.48 µM; in the experiment on HCT116 cells, 8.24 ± 0.26 µM; in the experiment with MDA-MB-231 cells, 13.5 ± 2.21 µM. For the same compound, the values for the IC50 in the experiment on MCF-7 cells, in the experiment with U373 cells and in the experiment with NIH3T3 cells were 6.64 ± 0.39 µM, 32.26 ± 0.25 µM and 91 ± 1.34 µM, respectively.

Regarding `O=C1CSC2(C(=O)Nc3ccc(F)cc32)N1Cc1ccccc1` (centres unmarked) [Compound 4, 3′-Benzyl-5-fluorospiro[indoline-3,2′-thiazolidine]-2,4′-dione], the IC50 was more than 100 µM in the experiment with HaCaT cells; 60.2 ± 0.72 µM with KB3-1 cells; 88.8 ± 4.06 µM with K562 cells; 91.8 ± 1.55 µM in the experiment on 4T1 cells; more than 100 µM in the experiment on HCT116 cells; 99.21 ± 0.41 µM in the experiment with MDA-MB-231 cells. In addition, the half-inhibitory concentration (IC50) in the experiment on MCF-7 cells was more than 100 µM; in the experiment with U373 cells, 98.6 ± 1.92 µM; in the experiment on NIH3T3 cells, more than 100 µM.

Consider `CC(C)(C)c1ccc(/C=C2\SC3(C(=O)Nc4ccc(Br)cc43)N(c3ccc(Br)cc3)C2=O)cc1` (centres unmarked) [Compound 16, (Z)-5-Bromo-3′-(4-bromophenyl)-5′-(4-(tert-butyl)benzylidene)spiro[indoline-3,2′-thiazolidine]-2,4′-dione], for which the IC50 in the experiment with HaCaT cells was more than 100 µM; with KB3-1 cells, 29.5 ± 0.33 µM; in the experiment on K562 cells, more than 100 µM; with 4T1 cells, 69 ± 5.11 µM; with HCT116 cells, more than 100 µM; in the experiment with MDA-MB-231 cells, 53.27 ± 0.51 µM. Moreover, the 50% inhibitory concentration (IC50) in the experiment on MCF-7 cells, in the experiment on U373 cells and with NIH3T3 cells was more than 100 µM throughout.

On to `O=C1CSC2(C(=O)Nc3ccc(Br)cc32)N1c1ccc(Br)cc1` (centres unmarked) [Compound 3, 5-Bromo-3′-(4-bromophenyl)spiro[indoline-3,2′-thiazolidine]-2,4′-dione], for which the concentration for half-maximal inhibition (IC50) worked out at 38.4 ± 0.77 µM with HaCaT cells; 46.7 ± 0.54 µM in the experiment on KB3-1 cells; 7.99 ± 0.12 µM in the experiment on K562 cells; 43.8 ± 1.76 µM in the experiment with 4T1 cells; 88.9 ± 6.33 µM with HCT116 cells; 56.5 ± 1.93 µM in the experiment with MDA-MB-231 cells. In addition, the IC50 amounted to 64 ± 4.77 µM in the experiment on MCF-7 cells, 49.4 ± 1.33 µM in the experiment on U373 cells and 82.9 ± 2.05 µM in the experiment with NIH3T3 cells.

Turning to `CCOc1ccc(/C=C2\SC3(C(=O)Nc4ccc(Cl)cc43)N(c3ccc(Cl)cc3)C2=O)cc1` (centres unmarked) [Compound 9, (Z)-5-Chloro-3′-(4-chlorophenyl)-5′-(4-ethoxybenzylidene)spiro[indoline-3,2′-thiazolidine]-2,4′-dione], the IC50 in the experiment on HaCaT cells was more than 100 µM; in the experiment on KB3-1 cells, 22.3 ± 1.17 µM; in the experiment on K562 cells it was 67.1 ± 0.7 µM; in the experiment with 4T1 cells it was 7.84 ± 0.49 µM; in the experiment with HCT116 cells, more than 100 µM; in the experiment with MDA-MB-231 cells, 7.89 ± 0.33 µM. For the same compound, the results for the half-maximal inhibitory concentration (IC50) in the experiment on MCF-7 cells, with U373 cells and in the experiment with NIH3T3 cells were 74.5 ± 4.73 µM, 98.22 ± 0.87 µM and more than 100 µM, respectively.
